According to ChEMBL document CHEMBL4000149, “The effect of glycine replacement with flexible ω-amino acids on the antimicrobial and haemolytic activity of an amphipathic cyclic heptapeptide” (Eur J Med Chem, 2015):
Values after ≈ are worked out from the molar mass of the structure shown. Bridge positions count the residues as written; N and C are the ends. Square brackets hold non-standard residues; d marks the D form. Peptide text beside a SMILES is read from it. ξ: configuration not given here. 2Nal = N[C@@H](Cc1ccc2ccccc2c1)C(=O)O; ξDab = NCCC(N)C(=O)O; GABA = NCCCC(=O)O

Columns and labels:
[1] = tested on: Candida albicans; assay: Antifungal activity against Candida albicans ATCC 200955 by tube dilution method; type: functional
[2] = tested on: Acinetobacter baumannii; assay: Antimicrobial activity against multidrug-resistant Acinetobacter baumannii ATCC BAA-1605 by tube dilution method; type: functional
[3] = Toxicity in human erythrocytes assessed as hemolysis at 150 uM after 1 hr; type: cell-based, Erythrocyte; settings: read-out: Activity
[4] = tested on: Klebsiella pneumoniae; assay: Antimicrobial activity against multidrug-resistant Klebsiella pneumoniae ATCC 700603 by tube dilution method; type: functional
[5] = Toxicity in human erythrocytes assessed as hemolysis after 1 hr; type: cell-based, Erythrocyte
[6] = tested on: Staphylococcus aureus; assay: Antimicrobial activity against methicillin-resistant Staphylococcus aureus ATCC 33591 by tube dilution method; type: functional
[7] = tested on: Pseudomonas aeruginosa; assay: Antimicrobial activity against Pseudomonas aeruginosa ATCC 27853 by tube dilution method; type: functional
[8] = tested on: Escherichia coli; assay: Antimicrobial activity against Escherichia coli ATCC 25922 by tube dilution method; type: functional
[9] = tested on: Enterococcus faecium; assay: Antimicrobial activity against vancomycin-resistant Enterococcus faecium ATCC 700221 by tube dilution method; type: functional

SMILES: CC(C)C[C@@H]1NC(=O)CCCNC(=O)[C@H](Cc2ccc3ccccc3c2)NC(=O)[C@H](CCCNC(=N)N)NC(=O)[C@H](CC(C)C)NC(=O)[C@H](Cc2ccc3ccccc3c2)NC(=O)[C@H](CCCNC(=N)N)NC1=O (cyclo([2Nal][GABA]LR[2Nal]LR))
- MIC [1]: 16 µM (≈ 16.3 µg/mL)
- MIC [2]: 128 µM (≈ 130 µg/mL)
- hemolysis at 1 h, 150 µM [3]: 22%
- MIC [4]: 128 µM (≈ 130 µg/mL)
- EC50 at 1 hr [5]: 230 µM
- MIC [6]: 16 µM (≈ 16.3 µg/mL)
- MIC [7]: 128 µM (≈ 130 µg/mL)
- MIC [8]: 64 µM (≈ 65.2 µg/mL)
- MIC [9]: 8 µM (≈ 8.15 µg/mL)

SMILES: CCCCCCC1NC(=O)[C@H](Cc2ccc3ccccc3c2)NC(=O)[C@H](CCCNC(=N)N)NC(=O)[C@H](CC(C)C)NC(=O)CNC(=O)[C@H](Cc2ccc3ccccc3c2)NC(=O)[C@H](CCCNC(=N)N)NC1=O (stereo not given in full)
- MIC [1]: 4 µM (≈ 4.07 µg/mL)
- MIC [2]: 16 µM (≈ 16.3 µg/mL)
- hemolysis at 1 h, 150 µM [3]: 100%
- MIC [4]: 16 µM (≈ 16.3 µg/mL)
- EC50 at 1 hr [5]: 33 µM
- MIC [6]: 4 µM (≈ 4.07 µg/mL)
- MIC [7]: 32 µM (≈ 32.6 µg/mL)
- MIC [8]: 16 µM (≈ 16.3 µg/mL)
- MIC [9]: 2 µM (≈ 2.04 µg/mL)

SMILES: CC(C)C[C@@H]1NC(=O)CNC(=O)[C@H](Cc2ccccc2)NC(=O)[C@H](CCCCN)NC(=O)[C@H](CC(C)C)NC(=O)[C@H](Cc2ccccc2)NC(=O)[C@H](CCCCN)NC1=O (cyclo(FGLKFLK))
- MIC [1]: > 128 µM
- MIC [2]: 128 µM (≈ 107 µg/mL)
- hemolysis at 1 h, 150 µM [3]: < 8%
- MIC [4]: > 128 µM
- EC50 at 1 hr [5]: > 150 µM
- MIC [6]: > 128 µM
- MIC [7]: > 128 µM
- MIC [8]: 128 µM (≈ 107 µg/mL)
- MIC [9]: 128 µM (≈ 107 µg/mL)

SMILES: CC(C)C[C@@H]1NC(=O)CCCNC(=O)C(N)CCNC(=O)[C@H](Cc2ccc3ccccc3c2)NC(=O)[C@H](CCCNC(=N)N)NC(=O)[C@H](CC(C)C)NC(=O)[C@H](Cc2ccc3ccccc3c2)NC(=O)[C@H](CCCNC(=N)N)NC1=O (stereo not given in full) (H-[ξDab][GABA]LR[2Nal]LR[2Nal]; lactam 1-C)
- MIC [1]: 16 µM (≈ 17.9 µg/mL)
- MIC [2]: 32 µM (≈ 35.8 µg/mL)
- hemolysis at 1 h, 150 µM [3]: 12%
- MIC [4]: 32 µM (≈ 35.8 µg/mL)
- EC50 at 1 hr [5]: 255 µM
- MIC [6]: 16 µM (≈ 17.9 µg/mL)
- MIC [7]: 64 µM (≈ 71.6 µg/mL)
- MIC [8]: 32 µM (≈ 35.8 µg/mL)
- MIC [9]: 8 µM (≈ 8.95 µg/mL)

SMILES: CC(C)C[C@@H]1NC(=O)CNC(=O)[C@H](Cc2ccc(O)cc2)NC(=O)[C@H](CCCNC(=N)N)NC(=O)[C@H](CC(C)C)NC(=O)[C@H](Cc2ccc3ccccc3c2)NC(=O)[C@H](CCCNC(=N)N)NC1=O (cyclo([2Nal]LRYGLR))
- MIC [1]: > 128 µM
- MIC [2]: > 128 µM
- hemolysis at 1 h, 150 µM [3]: 19%
- MIC [4]: > 128 µM
- EC50 at 1 hr [5]: > 150 µM
- MIC [6]: 128 µM (≈ 122 µg/mL)
- MIC [7]: > 128 µM
- MIC [8]: > 128 µM
- MIC [9]: 64 µM (≈ 61.2 µg/mL)
